Measurements taken from US8901357B2, “Dibenzoyl peroxide derivatives, preparation method thereof and cosmetic or dermatological compositions containing same” (Galderma Research & Development, priority 2009, dated 2014).

System: Propionibacterium acnes
Experiment: Sensitivity of peroxides versus dibenzoyl peroxide on Propionibacterium acnes: MIC, dilution method in agar medium (CLSI M11A7)
Format: cell-based
Details: Cutibacterium acnes, 48 h
[1] = P. acnes strain 998, read after 48 hours anaerobic incubation
[2] = P. acnes strain 1044, read after 48 hours anaerobic incubation
[3] = P. acnes strain 1045, read after 48 hours anaerobic incubation
[4] = P. acnes strain 1201, read after 48 hours anaerobic incubation
[5] = P. acnes strain 3069, read after 48 hours anaerobic incubation
[6] = P. acnes strain CSS 2913, read after 48 hours anaerobic incubation
[7] = P. acnes strain CSS 2971, read after 48 hours anaerobic incubation
[8] = P. acnes strain CSS 3288, read after 48 hours anaerobic incubation
[9] = P. acnes strain UAA 2281, read after 48 hours anaerobic incubation
[10] = P. acnes strain UAA 2285, read after 48 hours anaerobic incubation

Measured: MIC

O=C(OOC(=O)c1ccccc1)c1ccccc1 [Benzoyl peroxide]
640 µg/mL: [1] | [2] | [3] | [4] | [5] | [6] | [7] | [8] | [9] | [10]

CCCCCCCC(=O)c1ccc(OC(C)=O)c(C(=O)OOC(=O)c2ccccc2)c1 [Example 1, (2-acetoxy-5-octanoylbenzoyl)benzoyl peroxide]
320 µg/mL: [2] | [3] | [4] | [6] | [7] | [8] | [9] | [10]
1280 µg/mL: [1] | [5]
